# Laboratory results published in patent publication US9206186B2, “2-phenoxy- and 2-phenylsulfonamide derivatives with CCR3 antagonistic activity for the treatment of inflammatory or immunological disorders” (AXIKIN PHARMACEUTICALS, INC., priority 2003, dated 2015).
# Counter-ions that a name gives are not always drawn.
# Target: T1, Human CCR3 (Homo sapiens, UniProt P51677)
# T1 construct: The cloned CCR3 cDNA was constructed with pcDNA3 vector and transfected into a K562 cell line; expressed in transfected cells
# T1 sequence (P51677 1-355): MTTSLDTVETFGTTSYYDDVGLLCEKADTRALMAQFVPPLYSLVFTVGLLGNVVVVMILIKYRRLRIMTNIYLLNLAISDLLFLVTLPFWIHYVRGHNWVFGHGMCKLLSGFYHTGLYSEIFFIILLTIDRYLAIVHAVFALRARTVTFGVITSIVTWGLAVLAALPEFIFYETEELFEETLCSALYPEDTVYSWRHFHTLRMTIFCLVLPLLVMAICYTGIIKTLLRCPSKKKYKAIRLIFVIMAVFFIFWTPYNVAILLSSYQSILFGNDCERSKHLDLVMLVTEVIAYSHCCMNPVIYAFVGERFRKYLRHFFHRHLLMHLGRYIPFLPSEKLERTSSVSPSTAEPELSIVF
# Experiment: Receptor binding assay (RBA), [125I]-eotaxin on human CCR3-transformed K562 cells
# Details: compounds of about 40 to 90% purity, read-out: Activity grade CCR3
# Experimental: [Determination of IC50 Values of Compounds in Receptor Binding Assay]
# • Human CCR3-transformed K562 cells were used. The cloned CCR3 cDNA was constructed with pcDNA3 vector and transfected into a K562 cell line. The human CCR3-transformed K562 cells were maintained in RPMI-1640 (Cat.#22400-089, Life Technologies) supplemented with 10% FCS (Cat.#A-1115-L, Hyclone), 55 μM 2-mercaptoethanol (Cat.#21985-023, Life Technologies), 1 mM sodium pyruvate (Cat.#11360-070, Life Technologies), 100 units/ml of penicillin G and 100 μg/ml of streptomycin (Cat.#15140-122, Life Technologies), and 0.4 mg/ml of Geneticin (Cat.#10131-035, Life Technologies) (hereinafter called “culture medium”). Before the receptor binding assay, cells were pretreated with 5 mM sodium butyrate (Cat.#193-01522, Wako)-containing the culture medium (2×10^5 cells/ml) for 20-24 hours to increase the expression of CCR3. (2) Receptor Binding Assay • Butyrate-pretreated cells, suspended in binding buffer (25 mM HEPES pH 7.6, 1 mM CaCl2, 5 mM MgCl2, 0.5% BSA, 0.1% NaN3) at a cell density of 2×10^6 cells/ml, were added into 60 μl/well in the 96-well round bottom polypropylene plate (Cat.#3365, Costar). Compounds, diluted with the binding buffer (4-times higher concentration of the final concentration), were added into 30 μl/well in the polypropylene plate. [^125I]-labeled human eotaxin (Cat.#IM290, Amersham Pharmacia Biotech), diluted with the binding buffer at the concentration of 0.4 nM (final concentration; 0.1 nM), was added into 30 μl/well in the polypropylene plate. Total 120 μl/well of binding reaction mixture (60 μl/well of cell suspension, 30 μl/well of compound solution, and 30 μl/well of [^125I]-labeled eotaxin) were incubated in the polypropylene plate for 1 hour at room temperature after the incubation, 100 μl/well of the reaction mixture was transferred to a filtration plate (Cat.#MAFB-N0B, Millipore), and washed with the washing buffer (25 mM HEPES pH 7.6, 1 mM CaCl2, 5 mM MgCl2, 0.5% BSA, 0.1% NaN3, 0.5 M NaCl) twice. The 96-well filtration plate was pretreated with 100 μl/well of 0.5% polyethylenimine (Cat.#P-3143, Sigma) for 2-4 hours at room temperature and washed with the washing buffer twice before use. The non-specific binding was determined by parallel incubation in the presence of 500 nM of non-labeled eotaxin (Cat.#23209, Genzyme Techne). The radioactivities remained on the filter were measured by liquid scintillation counter (TopCount™, Packard) after an addition of 45 μl/well of scintillant (Microscint20, Cat.#6013621, Packard). The inhibition percent at each concentration of compound was calculated, and IC50 values were determined from the inhibition curve. [Determination of IC50 Values of Compounds in Calcium Mobilization Assay] (1) Cell • Human CCR3-transformed K562 cells were used. The human CCR3-transformed K562 cells were maintained in RPMI-1640 supplemented with 10% FCS, 55 μM 2-mercaptoethanol (Cat.#21985-023, Life Technologies), 1 mM sodium pyruvate, 100 units/ml of penicillin G and 100 μg/ml of streptomycin, and 0.4 mg/ml of Geneticin. Before the calcium mobilization assay, cells were pretreated with 5 mM sodium butyrate-containing the culture medium (2×10^5 cells/ml) for 20-24 hours to increase the expression of CCR3. (2) Calcium Mobilization Assay • Butyrate-pretreated cells were loaded with Fluo-3AM (Cat.#F-1242, Molecular Probes) in loading buffer (Hanks' solution Cat.#05906 Nissui, 20 mM HEPES pH 7.6, 0.1% BSA, 1 mM probenecid Cat.#P-8761 Sigma, 1 μM Fluo-3AM, 0.01% pluronic F-127 Cat.#P-6866 Molecular Probes) at a cell density of 1×10^7 cells/ml. Then, cells were washed with calcium assay buffer (Hanks' solution Cat.#05906 Nissui, 20 mM HEPES pH 7.6, 0.1% BSA, 1 mM Probenecid Cat.#P-8761 Sigma). The cell suspension (3.3×10^6 cells/ml) was added into 60 μl/well in the 96-well clear bottom black plate (Cat.#3904, Costar). […]
row,IC50 [nM],SMILES
1,< 100,"N#Cc1ccc(Oc2cc(Cl)cc(Cl)c2)c(S(=O)(=O)N[C@H]2CN3CCC2CC3)c1 [Example 1-1, N—(R)-(+)-(1-aza-bicyclo[2.2.2]oct-3-yl)-5-cyano-2-(3,5-dichloro-phenoxy)-benzenesulfonamide]"
2,> 500,N#Cc1ccc(Oc2cc(Cl)cc(Cl)c2)c(S(=O)(=O)N2CCCCC2)c1 [Example 1-5]
3,< 100,CC(=O)NCC1CN(S(=O)(=O)c2cc(C#N)ccc2Oc2cc(Cl)cc(Cl)c2)CCN1 (stereo not drawn) [Example 1-8]
4,< 100,CC(=O)NCC1CNCCN1S(=O)(=O)c1cc(C#N)ccc1Oc1cc(Cl)cc(Cl)c1 (stereo not drawn) [Example 1-10]
5,100 to 500,N#Cc1ccc(Oc2cc(Cl)cc(Cl)c2)c(S(=O)(=O)N2CCC(N3C[C@H](O)[C@@H](O)C3)CC2)c1 [Example 1-11]
6,100 to 500,COC(=O)C1CN(S(=O)(=O)c2cc(C#N)ccc2Oc2cc(Cl)cc(Cl)c2)CCCN1 (stereo not drawn) [Example 1-12]
7,100 to 500,COC(=O)[C@@H]1C[C@H](N2CCCC2)CN1S(=O)(=O)c1cc(C#N)ccc1Oc1cc(Cl)cc(Cl)c1 [Example 1-13]
8,< 100,COC(=O)C1CNCCCN1S(=O)(=O)c1cc(C#N)ccc1Oc1cc(Cl)cc(Cl)c1 (stereo not drawn) [Example 1-22]
9,< 100,N#Cc1ccc(Oc2cc(Cl)cc(Cl)c2)c(S(=O)(=O)N[C@@H]2CN3CCC2CC3)c1 [Example 1-32]
10,< 100,N#Cc1ccc(Oc2cc(Cl)cc(Cl)c2)c(S(=O)(=O)N2CCC(N3CCC[C@H]3C(=O)O)CC2)c1 [Example 1-33]
11,< 100,CC(C)(O)[C@@H]1CCCN1C1CCN(S(=O)(=O)c2cc(C#N)ccc2Oc2cc(Cl)cc(Cl)c2)CC1 [Example 1-34]
12,100 to 500,N#Cc1ccc(Oc2cc(Cl)cc(Cl)c2)c(S(=O)(=O)N2CCCCC2CN2CCC(O)C2)c1 (stereo not drawn) [Example 1-35]
13,100 to 500,CCN1CCCN(S(=O)(=O)c2cc(C#N)ccc2Oc2cc(Cl)cc(Cl)c2)C(C(=O)OC)C1 (stereo not drawn) [Example 1-39]
14,< 100,N#Cc1ccc(Oc2cc(Cl)cc(Cl)c2)c(S(=O)(=O)N2CCC(N3CCCC3)C(CN3C(=O)CCC3=O)C2)c1 (stereo not drawn) [Example 1-44]
15,< 100,N#Cc1ccc(Oc2cc(Cl)cc(Cl)c2)c(S(=O)(=O)N2CCC(N3CCC[C@H]3CO)CC2)c1 [Example 1-45]
16,< 100,N#Cc1ccc(Oc2cc(Cl)cc(Cl)c2)c(S(=O)(=O)N2CCC[C@H]2CN2CCC[C@H]2CO)c1 [Example 1-46]

# The next lines start with the molecule.
row,SMILES,IC50 [nM]
1,"CN(C)CCN(CCN1C(=O)CCC1=O)S(=O)(=O)c1cc(C#N)ccc1Oc1cc(Cl)cc(Cl)c1 [Example 1-2, 5-cyano-2-(3,5-dichloro-phenoxy)-N-(2-dimethylamino-ethyl)-N-[2-(2,5-dioxo-pyrrolidin-1-yl)-ethyl]-benzenesulfonamide]",< 100
2,"N#Cc1ccc(Oc2cc(Cl)cc(Cl)c2)c(S(=O)(=O)N2CCN[C@@H](Cc3c[nH]c4ccccc34)C2)c1 [Example 1-3, 4-(3,5-dichloro-phenoxy)-3-[(3S)-(1H-indol-3-ylmethyl)-piperazine-1-sulfonyl]-benzonitrile]",< 100
3,"N#Cc1ccc(Oc2cc(Cl)cc(Cl)c2)c(S(=O)(=O)N2CCNCC2Cn2cncn2)c1 (stereo not drawn) [Example 1-4, 4-(3,5-dichlorophenoxy)-3-{[2-(1H-1,2,4-triazol-1-ylmethyl)-1-piperazinyl]sulfonyl}benzonitrile hydrochloride]",< 100
4,N#Cc1ccc(Oc2cc(Cl)cc(Cl)c2)c(S(=O)(=O)N2CC3CCN(Cc4ccccc4)C3C2)c1 (stereo not drawn) [Example 1-6],< 100
5,CS(=O)(=O)NCC1CN(S(=O)(=O)c2cc(C#N)ccc2Oc2cc(Cl)cc(Cl)c2)CCN1 (stereo not drawn) [Example 1-7],< 100
6,CS(=O)(=O)NCC1CNCCN1S(=O)(=O)c1cc(C#N)ccc1Oc1cc(Cl)cc(Cl)c1 (stereo not drawn) [Example 1-9],< 100
7,N#Cc1ccc(Oc2cc(Cl)cc(Cl)c2)c(S(=O)(=O)N2CC[C@H](NCCO)C2)c1 [Example 1-16],< 100
8,N#Cc1ccc(Oc2cc(Cl)cc(Cl)c2)c(S(=O)(=O)N2CCNC[C@@H]2Cc2c[nH]c3ccccc23)c1 [Example 1-26],< 100
9,N#Cc1ccc(Oc2cc(Cl)cc(Cl)c2)c(S(=O)(=O)N2CCNCC2CN2C(=O)CCC2=O)c1 (stereo not drawn) [Example 1-27],< 100
10,CS(=O)(=O)NCC1CN(S(=O)(=O)c2cc(C#N)ccc2Oc2cc(Cl)cc(Cl)c2)CCCN1 (stereo not drawn) [Example 1-28],< 100
11,CS(=O)(=O)NCC1CNCCCN1S(=O)(=O)c1cc(C#N)ccc1Oc1cc(Cl)cc(Cl)c1.Cl (stereo not drawn) [Example 1-29],< 100
12,CC(=O)c1ccc(Oc2cc(Cl)cc(Cl)c2)c(S(=O)(=O)N2CCNCC2)c1 [Example 1-31],< 100
13,N#Cc1ccc(Oc2cc(Cl)cc(Cl)c2)c(S(=O)(=O)N2CCNC(Cn3ncnn3)C2)c1 (stereo not drawn) [Example 1-36],< 100
14,Cl.N#Cc1ccc(Oc2cc(Cl)cc(Cl)c2)c(S(=O)(=O)N2CCNC(Cn3cncn3)C2)c1 (stereo not drawn) [Example 1-37],< 100
15,N#Cc1ccc(Oc2cc(Cl)cc(Cl)c2)c(S(=O)(=O)N(CCN2CCCC2)C2CCCC2)c1 [Example 1-42],100 to 500
16,N#Cc1ccc(Oc2cc(Cl)cc(Cl)c2)c(S(=O)(=O)N2CCNC(CN3C(=O)CCC3=O)C2)c1 (stereo not drawn) [Example 1-43],< 100
17,"N#Cc1ccc(Oc2cc(Cl)cc(Cl)c2)c(S(=O)(=O)C2CCNCC2)c1 [Example 2-1, 4-(3,5-Dichloro-phenoxy)-3-(piperidine-4-sulfonyl)-benzonitrile]",> 500
